Our source for the EC50 values is patent publication US20250026734A1 (priority 2021, published 2025).

The term EC50 denotes the midpoint of the concentration-response curve.

The test system of the test is SARS-CoV-2 strains. The format is cell-based.

Values joined by “and” are separate entries in the source; they are usually repeats but may differ in a detail not shown here. Equal entries are not always repeated. Where two headings read alike, the source gives them in different places.

Take `CCCCn1c(=O)c2ccc(NCCO)cc2c2cc(C(O)(C(F)(F)F)C(F)(F)F)ccc21` [NR-31]: the EC50 (read-out: EC50) was 5.12 µM and 3.47 µM and 3.53 µM and 5.28 µM and 3.37 µM and 4.07 µM and 3.62 µM; the EC50 (read-out: EC50 (inhibits cell death induced by SARS-CoV-2 infection by 50%)) is 4.4 µM.
